The target of assay [1] is T1, astrocyte specific glutamate transporter, SLC1A2 (Rattus norvegicus, UniProt P31596).
T1 construct: In vitro intracellular recordings were obtained from pyramidal neurons (layer 2-3) 23-28 h following the in vivo treatment; from tissue; host or cells: acute rat neocortical slices (astrocytic transporter; recordings from layer 2-3 pyramidal neurons)
Put plainly: Whole cell patch recording of NMDA-mediated EPSCs in cortical pyramidal neurons. It counts as cell-based. As to conditions: DHK 100 μM. The method, then:
In vitro intracellular recordings were obtained from pyramidal neurons (layer 2-3) 23-28 h following the in vivo treatment with albumin or from control rats. Currents were recorded using the whole cell patch configuration, as described previously (Pavlovsky et al., 2003). In brief, glass pipettes were pulled from capillaries using a vertical puller (Narashige, Greenvale, N.Y.) and filled with a solution comprising (in mM): 150 CsCl, 1 MgCl2, 10 HEPES, 4 Na2ATP, 0.1 CaCl2, and 1.1 mM EGTA, pH adjusted to 7.2 with a final osmolarity of 290-310 mOsm. Cells were visualized using infrared differential interference phase contrast video-microscopy. Recordings were performed using AxoPatch 700B (Axon Instruments, Foster City, Calif.), digitized at 10 kHz and recorded using pClamp 9.2 (Axon Instruments, Foster City, Calif.). Patch pipette's resistance was 4-5 MΩ. Series resistance was not electronically compensated; however, cells in which series resistance varied by more than 25% were excluded from the analysis. Stimulation protocols were started at least 5 min following impalement to allow intracellular dialysis with the pipette solution. Excitatory post-synaptic currents (EPSCs) were evoked—using a bipolar stimulating electrode positioned <200 μm from the recorded cell—at 75% of the intensity producing maximal EPSCs. N-methyl-D-aspartic acid (NMDA) currents were recorded in the presence of blockers of α-amino-3-hydroxy-5-methyl-4-isoxazole-propionic acid (AMPA)/kainate (i.e., 30 μM CNQX) and of gamma-aminobutyric acid A (GABAA) receptors (i.e., 10 μM bicuculine methiodide). Cells were voltage clamped to +40 mV to alleviate NMDA receptor blockade and inactivate fast Na^+ currents. In some experiments, dihydrokainic acid (DHK, Tocris, Bristol, UK), 100 μM, was added to the extracellular solution to selectively block the astrocyte specific glutamate transporter, SLC1A2 (see Arriza et al., 1994).
To confirm that the transcriptional changes induced by albumin were associated with altered cellular functions, the clearance of extracellular glutamate and potassium in cortical slices 24 hours following albumin treatment in vivo was investigated. To measure synaptic glutamate levels during neuronal activation, the slowly inactivating (Lester et al., 1990) NMDA currents in cortical neurons were recorded by using the whole-cell patch configuration (in the presence of non-NMDA glutamate and GABA receptor blockers, see Methods). Cells were clamped at +40 mV to prevent a potential confounding effect of post-synaptic depolarization due to the accumulation of synaptic [K^+]o. […] Synaptic glutamate elicited by 50 extracellular stimulations at 2, 5, 10, 20, 50 and 100 Hz before and after adding the astrocytic SLC1A2 specific inhibitor, DHK was measured. In neurons from control animals, DHK had no effect on single EPSCs or EPSCs elicited at low stimulation frequencies (<20 Hz). […] The same experiments were then repeated 24 h following cortical application of albumin (i.e. during epileptogenesis). In contrast to the control experiments, DHK had no effect on EPSC amplitude in treated slices (FIG. 13b-c, right), supporting reduced expression of the astrocytic transporter SLC1A2.

The test system of assay [2] is albumin-induced epileptogenesis. Put plainly: EEG recording from awake rats during albumin-induced epileptogenesis. The format is in vivo, rat.
The subject of another assay is neocortical slices. The assay can be described thus: Field potential recordings of epileptiform activity in neocortical slices. The format is cell-based, rat. As for the experimental part: Brain slices for the in vitro experiments were prepared by means of standard techniques (Ivens et al., 2007; Pavlovsky et al., 2003; Seiffert et al., 2004). Slices were transferred to a recording chamber where they were incubated in aCSF containing BSA (6.7 mg/ml), TGF-β1 (10 ng/ml) or artificial serum (aSerum, composition based on aCSF with the following changes, composition in mM: 0.8 MgSO4, 1.3 CaCl2, 5.7 KCl, 1 L-glutamine, 0.1 albumin). To block the activity of TGF-β1, slices were incubated in aCSF containing SB431542 (10 μM) before the addition of TGF-β1 (10 ng/ml). To block TGF-βRs, slices were incubated in aCSF containing SB431542 (10 μM) and TGF-βRII antibody (10 μg/ml) for 30 min followed by incubation in BSA in the presence of TGF-βR blockers. For detection of epileptiform activity, field potentials were recorded >4 h following incubation in cortical layer IV using extracellular glass microelectrodes (˜3 MΩ) in response to bipolar stimulation at the border of white and grey matter.
To assess the hypothesis that activation of the TGF-β signaling pathway is the mechanism underlying albumin-induced epileptogenesis, we activated this pathway directly by incubating neocortical slices with TGF-β1 (10 ng/mL) in artificial cerebrospinal fluid (aCSF) and performed electrophysiological recordings. These recordings were compared to those of slices treated with a solution containing serum levels of electrolytes and 0.1 mM albumin (aSERUM, previously shown to induce epileptogenesis; Ivens et al., 2007), albumin in aCSF, or aCSF (control). […] When albumin was added to the control aCSF solution, epileptiform activity was recorded in response to stimulation of the white matter (n=8 out of 12 slices, 6 animals). Importantly. TGF-β1 treatment was sufficient to recapitulate epileptiform activity similar to that seen following treatment with aSERUM and albumin in aCSF (n=5 out of 5 slices, 4 animals; n=7 out of 9 slices, 3 animals; and n=8 out of 12 slices, 6 animals, respectively). In all three cases, the evoked epileptiform activity, was all-or-none in nature, paroxysmal and prolonged, similar to that seen following BBB opening with bile salts (Ivens et al., 2007; Seiffert et al., 2004) and typical to that observed in acute models of epilepsy (Gutnick et al., 1982).
To further confirm that the TGF-β1 induced epileptiform activity was dependent on the TGF-βR mediated pathway, we performed additional trials of the above experiments in the presence of two TGF-βR blockers (SB431542, the TGF-βRI kinase activity inhibitor and TGF-βRII antibody).

The values below come from patent US10668049B2, “Methods of treating cognitive decline with transforming growth factor beta inhibitors” (The Regents of the University of California, priority 2008, dated 2020).

T1 sequence (P31596 whole entry): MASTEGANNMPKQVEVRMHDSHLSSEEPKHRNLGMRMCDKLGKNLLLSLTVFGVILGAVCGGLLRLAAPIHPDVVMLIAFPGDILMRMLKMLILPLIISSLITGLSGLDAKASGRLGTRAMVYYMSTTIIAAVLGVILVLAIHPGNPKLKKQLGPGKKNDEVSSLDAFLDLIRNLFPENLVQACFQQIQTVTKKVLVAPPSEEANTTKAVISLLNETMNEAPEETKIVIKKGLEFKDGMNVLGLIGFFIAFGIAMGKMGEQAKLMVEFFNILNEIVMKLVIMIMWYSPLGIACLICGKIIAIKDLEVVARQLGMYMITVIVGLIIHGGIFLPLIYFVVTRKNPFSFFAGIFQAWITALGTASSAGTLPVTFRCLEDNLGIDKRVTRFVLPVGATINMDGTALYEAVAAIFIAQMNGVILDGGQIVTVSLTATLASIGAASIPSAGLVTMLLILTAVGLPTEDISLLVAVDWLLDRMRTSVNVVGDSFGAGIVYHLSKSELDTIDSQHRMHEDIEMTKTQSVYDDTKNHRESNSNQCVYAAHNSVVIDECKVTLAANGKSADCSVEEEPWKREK

Consider `CC(C)[C@H]1CN[C@H](C(=O)O)[C@H]1CC(=O)O` [DHK, dihydrokainic acid, reference compound], for which, in assay [1] (neurons from control animals), the “effect on NMDA currents at stimulation frequencies >20 Hz” value is on record as “increased NMDA currents” and the “effect on single EPSCs or EPSCs elicited at low stimulation frequencies (<20 Hz)” value is on record as “no effect”. For the same compound, in assay [1] (slices 24 h following cortical application of albumin), the “effect on EPSC amplitude” value is “no effect”.

For the compound `CCCCc1nc(Cl)c(CO)n1Cc1ccc(-c2ccccc2-c2nnn[nH]2)cc1.[K]` [Losartan, 2-butyl-4-chloro-1-[p-(o-1H-tetrazol-5-ylphenyl)benzyl]imidazole-5-methanol, monopotassium salt, reference compound], the “number of seizure like events (SLEs)” value in assay [2] (losartan-treated rats (n=7) compared to BSA-treated ones (n=8)) is given as “significantly smaller”. The “albumin-induced EEG changes (signal harmony, complexity) during epileptogenesis” value in assay [2] (single, focal application together with BSA, 10 μM) is reported as “reversed the albumin-induced EEG changes”.

As to “TGF-β1: TGF-β1 (10 ng/ml, Peprotech), used to activate the TGF-β pathway”, in the assay with neocortical slices (inducer alone, without TGF-βR blockers), the “integral of the field potential” value turned out to be 84.1±20.1 mV*ms. Further, the “evoked epileptiform activity in response to stimulation of the white matter, slices showing it” value with neocortical slices (slices incubated with the inducer) is given as 5 out of 5.
